# Laboratory results as given in BindingDB's records for doi:10.7270/Q2KP80J0 (The Scripps Research Institute Molecular Screening Center, 2007).
# Molecular target: T1, Ephrin type-B receptor 4 (Homo sapiens, UniProt P54760)
# T1 sequence (P54760 whole entry): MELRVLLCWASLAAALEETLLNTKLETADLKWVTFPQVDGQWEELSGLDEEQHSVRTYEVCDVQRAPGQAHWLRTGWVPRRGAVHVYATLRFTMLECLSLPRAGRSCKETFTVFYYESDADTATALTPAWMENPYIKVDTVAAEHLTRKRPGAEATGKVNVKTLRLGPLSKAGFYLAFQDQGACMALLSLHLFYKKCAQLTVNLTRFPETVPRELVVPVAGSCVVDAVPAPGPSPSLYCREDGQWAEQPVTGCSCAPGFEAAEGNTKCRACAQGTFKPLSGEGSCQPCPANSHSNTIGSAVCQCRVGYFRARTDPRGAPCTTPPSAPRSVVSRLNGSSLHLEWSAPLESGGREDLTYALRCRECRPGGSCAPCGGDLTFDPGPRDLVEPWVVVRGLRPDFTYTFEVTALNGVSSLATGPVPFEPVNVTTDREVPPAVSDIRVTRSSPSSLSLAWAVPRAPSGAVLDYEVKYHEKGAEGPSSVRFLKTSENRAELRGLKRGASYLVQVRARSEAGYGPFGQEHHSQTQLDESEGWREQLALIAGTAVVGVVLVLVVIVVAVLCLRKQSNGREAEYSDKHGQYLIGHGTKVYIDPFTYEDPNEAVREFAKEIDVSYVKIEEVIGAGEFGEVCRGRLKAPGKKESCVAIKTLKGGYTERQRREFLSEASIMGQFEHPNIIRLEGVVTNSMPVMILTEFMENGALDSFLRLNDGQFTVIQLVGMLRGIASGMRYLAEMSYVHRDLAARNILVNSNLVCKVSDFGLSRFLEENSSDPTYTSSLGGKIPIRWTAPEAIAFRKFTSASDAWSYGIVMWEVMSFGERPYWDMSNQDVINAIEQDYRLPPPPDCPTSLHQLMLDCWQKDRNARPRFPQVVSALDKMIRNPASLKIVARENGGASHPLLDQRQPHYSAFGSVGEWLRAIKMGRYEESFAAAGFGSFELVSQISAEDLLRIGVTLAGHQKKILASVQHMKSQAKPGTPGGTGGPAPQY
# Test: EphB4-ephrin-B2 interaction antagonists, dose response, biochemical, TNYL-RAW peptide displacement (AID 835)
row,Structure (SMILES),IC50 [µM]
1,CCn1c(CSc2nccn2C)nc2cc(C(=O)O)ccc21 [MLS000058666],> 79.4
2,CCCc1[nH]nc2c1C(c1ccc(OC)c(Cn3nnc4ccccc43)c1)C(C#N)C(=N)O2 (stereo not drawn),> 79.4
3,N#Cc1ncc(C(F)(F)F)cc1Sc1ccc(N)cc1 [3-(4-aminophenyl)sulfanyl-5-(trifluoromethyl)pyridine-2-carbonitrile],> 79.4
4,O=S1(=O)c2cccc3cccc(c23)N1Cc1nnc(-c2ccccc2Br)o1 [MLS000081705],> 79.4
5,CCCCNC(=O)C1C2C=CC3(CN(Cc4ccccc4Cl)C(=O)C13)O2 (stereo not drawn) [MLS000044497],> 79.4
6,COCCCNc1c(O)nc2cccc3c2c1-c1ccccc1C3=O [SMR000017250],5.3
7,CC(O)c1cccc(NC(=O)CCC(=O)O)c1 (stereo not drawn) [4-[3-(1-hydroxyethyl)anilino]-4-keto-butyric acid],> 79.4
8,"c1coc(-c2nc(-c3ccco3)c(-c3ccco3)nc2-c2ccco2)c1 [2,3,5,6-tetrakis(2-furanyl)pyrazine]",> 79.4
9,O=C(NCCCN1CCCC1=O)NC12CC3CC(CC(C3)C1)C2 [MLS000050547],> 79.4
10,"O=C(Nc1cccnc1)C1COc2ccccc2O1 (stereo not drawn) [2,3-Dihydro-benzo[1,4]dioxine-2-carboxylic acid pyridin-3-ylamide]",> 79.4
11,O=C1Nc2ccccc2/C1=N/Nc1nc2ccccc2s1 [SMR000123161],> 79.4
12,CC(C)CC(=O)NC(=S)NCCc1ccccc1 [3-methyl-N-(2-phenylethylcarbamothioyl)butanamide],> 79.4
13,"Cc1cc(C(=O)CSc2nnc(Nc3ccccc3F)s2)c(C)n1CC1CCCO1 (stereo not drawn) [1-[2,5-dimethyl-1-(2-oxolanylmethyl)-3-pyrrolyl]-2-[[5-(2-fluoroanilino)-1,3,4-thiadiazol-2-yl]thio]ethanone]",> 79.4
14,"CC(=O)c1ccc(-n2nnnc2SCC(=O)N2CCc3ccccc3C2)cc1 [1-(3,4-dihydro-1H-isoquinolin-2-yl)-2-[[1-(4-ethanoylphenyl)-1,2,3,4-tetrazol-5-yl]sulfanyl]ethanone]",> 79.4
15,"CCCc1nnc(SCc2ccc(C(=O)OC)o2)n1N [5-[[(4-amino-5-propyl-1,2,4-triazol-3-yl)thio]methyl]-2-furancarboxylic acid methyl ester]",> 79.4
16,CCN1C(=O)C(=CNc2ccc(N3CCOCC3)cc2)C(=O)N(CC)C1=S,> 79.4
17,O=C(O)/C(=C\c1ccco1)NC(=O)c1cccc2ccccc12 [(E)-3-(furan-2-yl)-2-(naphthalene-1-carbonylamino)prop-2-enoic acid],> 79.4
18,O=C(Nc1ccccc1C(=O)N1CCOCC1)c1ccncc1 [MLS000109827],> 79.4
19,Oc1c(CN2CCCCC2)cc(COCc2ccccc2)c2cccnc12 [5-(benzoxymethyl)-7-(piperidinomethyl)quinolin-8-ol],> 79.4
20,O=C1c2ccccc2-c2onc3ccc(NCCCn4ccnc4)c1c23 [SMR000044769],0.8
21,"Cc1cc(N2CCN(c3ccccn3)CC2)n2cc(-c3ccccc3)nc2n1 [7-methyl-2-phenyl-5-(4-pyridin-2-ylpiperazin-1-yl)imidazo[1,2-a]pyrimidine]",> 79.4
22,Oc1ccccc1C=Nn1c(-c2cccs2)n[nH]c1=S [SMR000168763],> 79.4
23,"Cc1onc(-c2ccccc2)c1C(=O)Nc1ccc(S(=O)(=O)NC2=NCCCCC2)cc1 [5-methyl-3-phenyl-N-[4-(3,4,5,6-tetrahydro-2H-azepin-7-ylsulfamoyl)phenyl]-1,2-oxazole-4-carboxamide]",> 79.4
24,O=C(Nc1ccc2c(c1)OCO2)C1CC(c2ccc(F)cc2)=NO1 (stereo not drawn) [MLS000520439],> 79.4
25,CC(C)CCn1c(SCCN2CCOCC2)nc2c1c(=O)[nH]c(=O)n2C,> 79.4
26,Fc1ccc(Sc2cc(Cl)c(-c3ccccc3)nn2)cc1 [4-chloranyl-6-(4-fluorophenyl)sulfanyl-3-phenyl-pyridazine],> 79.4
27,"O=C(O)c1ccc(CSc2n[nH]c(-c3ccco3)n2)cc1 [4-[[5-(furan-2-yl)-1H-1,2,4-triazol-3-yl]sulfanylmethyl]benzoic acid]",> 79.4

row,Structure (SMILES),IC50 [µM]
1,"CC1CCN(S(=O)(=O)c2cc(Br)cc(C(=O)NC3=NCCS3)c2)CC1 [3-bromanyl-N-(4,5-dihydro-1,3-thiazol-2-yl)-5-(4-methylpiperidin-1-yl)sulfonyl-benzamide]",> 79.4
2,O=C(/C=C/c1cccc([N+](=O)[O-])c1)NCCN1CCOCC1 [(E)-N-(2-morpholin-4-ylethyl)-3-(3-nitrophenyl)prop-2-enamide],> 79.4
3,"CCOC(=O)c1cnc(Nc2nc3ccccc3o2)nc1CN1CCN(C)CC1 [2-(1,3-benzoxazol-2-ylamino)-4-[(4-methyl-1-piperazinyl)methyl]-5-pyrimidinecarboxylic acid ethyl ester]",> 79.4
4,CCC(C)(C)NC(=O)C(c1ccco1)N(C(=O)c1csnn1)c1cccc(F)c1 (stereo not drawn) [MLS000074093],> 79.4
5,O=C(NNC(=O)C1CCCCC1)C(=O)NC1CCCCC1 [2-[2-(cyclohexanecarbonyl)hydrazinyl]-N-cyclohexyl-2-oxoacetamide],> 79.4
6,CCCn1c(NC(=O)C2COc3ccccc3O2)nc2ccccc21 (stereo not drawn) [MLS000053418],> 79.4
7,"O=C(CCC1N=C2c3ccccc3N=C(SCc3ccc(F)cc3)N2C1=O)NCc1ccco1 (stereo not drawn) [3-{5-[(4-fluorobenzyl)thio]-3-oxo-2,3-dihydroimidazo[1,2-c]quinazolin-2-yl}-N-(2-furylmethyl)propanamide]",> 79.4
8,Cc1ccc(-c2ccc(C(=O)O)[nH]2)cc1 [5-(4-methylphenyl)-1H-pyrrole-2-carboxylic acid],> 79.4
9,COc1ccc(Cn2nnnc2C(c2cc3ccc(OC)cc3nc2O)N2CCC(C)CC2)cc1 (stereo not drawn) [MLS000523343],> 79.4
10,"CCCc1nnc(NC(=O)CN2C(=O)c3ccccc3S2(=O)=O)s1 [2-(1,1-dioxido-3-oxo-1,2-benzisothiazol-2(3H)-yl)-N-(5-propyl-1,3,4-thiadiazol-2-yl)acetamide]",> 79.4
11,"Cc1cc(=O)n(CC(C)C)c(O)c1C#N [2-hydroxy-1-isobutyl-4-methyl-6-oxo-1,6-dihydro-3-pyridinecarbonitrile]",> 79.4
12,"CC(c1ccccc1)C1CC(=O)N(C2CCCCC2)C1=O (stereo not drawn) [1-cyclohexyl-3-(1-phenylethyl)-2,5-pyrrolidinedione]",> 79.4
13,Cn1cc(Cl)c(C(=O)OCC(=O)Nc2ccccc2)n1 [(2-anilino-2-oxoethyl) 4-chloro-1-methylpyrazole-3-carboxylate],> 79.4
14,"COC(=O)CSC1=NC2=C(C(=O)CCC2)C(c2ccc(C)cc2)C1C#N (stereo not drawn) [methyl 2-[[3-cyano-4-(4-methylphenyl)-5-oxo-4,6,7,8-tetrahydro-1H-quinolin-2-yl]sulfanyl]acetate]",> 79.4
15,"Cc1cc(NC(c2ccc(Cl)cc2)c2ccc3cccnc3c2O)no1 (stereo not drawn) [7-[(4-chlorophenyl)-[(5-methyl-1,2-oxazol-3-yl)amino]methyl]quinolin-8-ol]",> 79.4
16,"Cc1c(NC(=O)COC(=O)C(c2ccc(Cl)cc2)C(C)C)c(=O)n(-c2ccccc2)n1C (stereo not drawn) [2-(4-chlorophenyl)-3-methyl-butyric acid [2-keto-2-[(3-keto-1,5-dimethyl-2-phenyl-3-pyrazolin-4-yl)amino]ethyl] ester]",> 79.4
17,CCn1c(CSc2nnc(-c3cccnc3)n2-c2ccccc2C)nc2cc(C(=O)O)ccc21 [SMR000067019],11.1
18,"Cc1cc(=O)oc(C)c1C(=O)OCC(=O)c1ccc(Cl)cc1 [2,4-Dimethyl-6-oxo-6H-pyran-3-carboxylic acid 2-(4-chloro-phenyl)-2-oxo-ethyl ester]",> 79.4
19,"CSc1cccc(-n2c(C)cc(C(N)=O)c2C)c1 [2,5-dimethyl-1-(3-methylsulfanylphenyl)pyrrole-3-carboxamide]",> 79.4
20,CCOC(=O)c1c(C)oc2c1c1c(c3ccccc32)OCN(Cc2cccnc2)C1 [MLS000043717],> 79.4
21,"O=C(c1ccc(COc2ccccc2Cl)o1)N1CCN(Cc2ccc3c(c2)OCO3)CC1 [1-(1,3-benzodioxol-5-ylmethyl)-4-{5-[(2-chlorophenoxy)methyl]-2-furoyl}piperazine]",> 79.4
22,CC1(C)Cc2ccccc2-c2nnc(SCC(=O)Nc3nc4ccccc4s3)n21 [MLS000077330],> 79.4
23,CCOC(=O)C1CCN(S(=O)(=O)Cc2ccccc2)C1=O (stereo not drawn) [1-benzylsulfonyl-2-keto-pyrrolidine-3-carboxylic acid ethyl ester],> 79.4
24,Cc1ccc(Nc2cnn(C34CC5CC(CC(CC(=O)O)(C5)C3)C4)c(=O)c2Cl)cc1 [2-[3-[5-chloro-4-(4-methylanilino)-6-oxo-1-pyridazinyl]-1-adamantyl]acetic acid],> 79.4
25,"CN(C)c1nc2n(c(=O)n1)CCO2 [2-(dimethylamino)-6,7-dihydro-[1,3]oxazolo[3,2-a][1,3,5]triazin-4-one]",> 79.4
26,O=C(CSc1nnnn1Cc1ccccc1)Nc1ccc2c(c1)OCO2 [MLS000067975],> 79.4
